Data reported in patent publication US20160199371A1, “PHARMACEUTICAL COMPOSITION HAVING PYRIMIDINE COMPOUND AS ACTIVE INGREDIENT” (ASTELLAS PHARMA INC, priority 2013, published 2016).

Key:
human recombinant FGFR4 = molecular target: T1, human recombinant FGFR4 (Homo sapiens, UniProt P22455); experiment: FGFR4 enzyme assay; assay type: biochemical; conditions: test compound 10 nM; read-out: FGFR4 Kinase Activity Inhibitory Rate
T1 construct: purchased CARNA BIOSCIENCES; Inc. 08CBS-0716C
Protocol: The outline of the measurement method is shown below.
Into a well of a 384-well plate,
(1) 4 μL of a compound solution was added,
(2) 2 μL of an FGFR4 enzyme (3 ng/μL) diluted with a reaction buffer was added,
(4) the mixture was allowed to undergo a reaction at room temperature for 30 minutes (concentration of the test compound species during assay of 10 nM).
(5) 15 μL/well of a 20 mM EDTA solution was added thereto to stop the reaction, and then in a LabChip EZ Reader (Perkin Elmer), the amount of a phosphorylated substrate peptide produced by the kinase reaction of FGFR4 was measured.

HuH-7 cell = experiment: Growth assay of FGF19 gene amplification-positive liver cancer cell (HuH-7); assay type: cell-based; conditions: Homo sapiens, Huh-7, 120 h; test compound 37 nM, 5 days; read-out: HuH-7 Cell Growth Inhibitory Rate
Protocol: After 5 days from the addition of the test compound solution, the number of HuH-7 cells were measured with ARVO×3 (Perkin Elmer) using a CellTiter-Glo Luminescent Cell Viability Assay (Promega). […] That is, the inhibitory rate was calculated by <the growth inhibitory rate (%)>=<1−(the measured value of the well to which the test compound was added>−<the measured value of the well to which the cells were not added (only medium present)>)/{<the measured value of the well to which the test compound was not added (only DMSO was added)>−<the measured value of the well to which the cells were not added (only medium present)}]×100.

[1] = system: FGF19 gene amplification-positive liver cancer cell (HuH-7); experiment: Antitumor test using mouse model subcutaneously transplanted with HuH-7 cells; assay type: in vivo, nude mice; conditions: 1 mg/kg/day oral once daily
Protocol: HuH-7 cells at 3×10^6 cells/0.1 mL (solution suspended in PBS and Matrigel at 1:1) was subcutaneously transplanted to nude mice (CanN.Cg-Foxn1 nu/CrlCrlj(nu/nu): Charles River Laboratories Japan, Inc., male, 4-5 week old). After about 3 weeks after the transplantation, the mice were grouped according to the tumor volumes and body weights. […] The test compound was made into a suspension using a 0.5% aqueous methyl cellulose solution and orally administered once a day daily. […] For the tumor volume, a short diameter and long diameter were measured using a calipers, and the tumor volume was calculated by (tumor volume mm^3)=(short diameter mm×short diameter mm×long diameter mm)/2. […] The tumor growth inhibitory rate of test compound was calculated by <the tumor growth inhibitory rate (%)>=<1−(increase in the tumor volume of the test compound-administered group/increase in the tumor volumes of the control group)>×100. The increase in the tumor volume was calculated by (increase in the tumor volume)=(the tumor volume on the final day of each group)−(the tumor volume on the 0th day of each group).

[2] = system: surgically unresectable liver cancer; conditions: extension from 7.9 months; N Engl J Med. 2008; cited from earlier work

T1 sequence (P22455 22-802): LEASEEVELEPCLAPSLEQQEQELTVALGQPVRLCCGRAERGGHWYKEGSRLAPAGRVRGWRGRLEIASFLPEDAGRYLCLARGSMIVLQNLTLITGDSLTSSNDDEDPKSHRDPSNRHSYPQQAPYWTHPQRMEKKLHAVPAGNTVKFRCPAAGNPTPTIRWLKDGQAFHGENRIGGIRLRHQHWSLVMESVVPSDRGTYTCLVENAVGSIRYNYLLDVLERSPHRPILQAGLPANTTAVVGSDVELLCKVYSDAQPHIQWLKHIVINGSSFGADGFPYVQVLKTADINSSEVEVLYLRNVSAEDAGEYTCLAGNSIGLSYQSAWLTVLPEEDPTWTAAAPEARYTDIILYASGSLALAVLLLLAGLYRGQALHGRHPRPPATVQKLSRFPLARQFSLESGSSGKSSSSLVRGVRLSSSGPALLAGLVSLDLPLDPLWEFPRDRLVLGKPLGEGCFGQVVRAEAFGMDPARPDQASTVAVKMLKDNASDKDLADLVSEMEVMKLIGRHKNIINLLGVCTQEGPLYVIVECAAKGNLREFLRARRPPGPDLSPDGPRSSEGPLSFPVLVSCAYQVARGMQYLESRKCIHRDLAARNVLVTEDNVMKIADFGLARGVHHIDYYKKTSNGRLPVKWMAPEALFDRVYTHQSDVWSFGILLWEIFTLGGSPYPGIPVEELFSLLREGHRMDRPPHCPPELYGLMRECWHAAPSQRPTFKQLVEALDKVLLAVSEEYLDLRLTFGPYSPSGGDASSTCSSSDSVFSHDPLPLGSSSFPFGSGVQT

Compound	inhibition at 0.01 µM (human recombinant FGFR4)	inhibition at 0.037 µM (HuH-7 cell)	Tumor growth inhibitory rate ([1]; final day 10th day)	survival [2]	Tumor growth inhibitory rate ([1]; final day 9th day)
COc1cc(OC)c(F)c(COc2cnc(Nc3ccc(N4CCN(C)CC4)cc3)nc2)c1F [Compound D, 5-[(2,6-difluoro-3,5-dimethoxybenzyl)oxy]-N-[4-(4-methylpiperazin-1-yl)phenyl]pyrimidin-2-amine]	82%	65%	67%		
CNC(=O)c1cc(Oc2ccc(NC(=O)Nc3ccc(Cl)c(C(F)(F)F)c3)cc2)ccn1 [sorafenib]				10.7 months	
COc1cc(Nc2ncc(OCc3c(F)c(OC)cc(OC)c3F)cn2)ccc1N1CCC(N2CCN(C)CC2)CC1 [Compound A, 5-[(2,6-difluoro-3,5-dimethoxybenzyl)oxy]-N-{3-methoxy-4-[4-(4-methylpiperazin-1-yl)piperidin-1-yl]phenyl}pyrimidin-2-amine]	78%	53%	80%		
COc1cc(OC)c(F)c(COc2cnc(Nc3cc(CN4CCN(C)CC4)n(C)n3)nc2)c1F [Compound E, 5-[(2,6-difluoro-3,5-dimethoxybenzyl)oxy]-N-{1-methyl-5-[(4-methylpiperazin-1-yl)methyl]-1H-pyrazol-3-yl}pyrimidin-2-amine]	31%	11%			44%
